According to article PMC7132281 (Proceedings of the National Academy of Sciences of the …, 2020):

Target: T1, AtaC (Vnz_27310) (Streptomyces venezuelae, UniProt F2R7Z6, D269N)
T1 sequence (F2R7Z6 1-401 D269N): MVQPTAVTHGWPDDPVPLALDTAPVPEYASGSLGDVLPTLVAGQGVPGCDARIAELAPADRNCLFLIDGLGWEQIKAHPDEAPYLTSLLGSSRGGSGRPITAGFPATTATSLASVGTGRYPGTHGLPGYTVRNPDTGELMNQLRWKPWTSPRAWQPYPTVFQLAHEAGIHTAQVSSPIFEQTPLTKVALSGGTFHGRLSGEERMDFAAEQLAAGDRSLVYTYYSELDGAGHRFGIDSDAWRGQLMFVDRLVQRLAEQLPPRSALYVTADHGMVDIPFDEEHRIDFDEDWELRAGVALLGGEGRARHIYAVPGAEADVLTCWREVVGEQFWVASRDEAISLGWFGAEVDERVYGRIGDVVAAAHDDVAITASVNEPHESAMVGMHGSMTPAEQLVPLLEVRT
Experiment: ITC
Format: binding

Nc1ncnc2c1ncn2[C@@H]1O[C@@H]2COP(=O)(O)O[C@H]3[C@@H](O)[C@H](n4cnc5c(N)ncnc54)O[C@@H]3COP(=O)(O)O[C@H]2[C@H]1O [c-di-AMP]
Kd: 949 ± 360 nM
